Data reported in patent publication US20260297098A1, “HETEROCYCLIC COMPOUNDS AS PARP1 INHIBITORS” (Synnovation Therapeutics, Inc., priority 2023, published 2026).

Biological target: T1, hydrogen peroxide-induced PARylation in HeLa cells (wide-type with PARP1 gene) (Homo sapiens, UniProt P09874)
T1 construct: H2O2-induced PARylation, In-Cell Western with anti-PAR antibody
Assay: In-Cell Western measurement of PARylation in PARP1 WT (HeLa) cells
Type: cell-based
Settings: 60 min compound pre-treatment, 10 mM hydrogen peroxide for 15 min, read-out: HeLa_WT_IC50
From the text: Example A. In-Cell Western Measurement of PARylation in PARP1 WT and Knockout Cells
The purpose of this cell-based assay is to measure the potency and selectivity of synthesized PARP inhibitors in suppressing hydrogen peroxide-induced PARylation in cells with and without PARP1 expression. Several cell lines were used in this assay. HeLa cells (wide-type with PARP1 gene) were purchased from ATCC. The HAP1 cell line without the PARP1 gene (#HZGHC003943c006) was purchased from Horizon Discovery. Cells were cultured using complete medium containing 10% fetal bovine serum. One day before the assay, cells were seeded in 96-well plates at the density of 20,000 cells per well in 80 uL complete medium. Compounds were dissolved using DMSO and diluted to the working concentrations using complete medium. Cells were pre-treated with compounds for 60 min and then stimulated with 10 mM hydrogen peroxide for 15 min. After stimulation, cells were immediately fixed using ice-cold methanol for 20 min. After fixation, cells were washed using 1×PBST buffer for 3 times, 5 min each time, to eliminate residual methanol. Cells were blocked for 1 h at room temperature in blocking buffer (10% goat serum, 1% BSA, 0.1% Triton X-100 in PBST). Primary antibody was diluted in blocking buffer at 50 uL per well. Cells were incubated with the primary antibody (Adipogen, AG-20T-0001-M001, 1:300) at 4° C. for 18 h. The wells were then washed using 1×PBST for 3 times, 5 min each time. IRDye® 680RD Goat anti-Mouse IgG (H+L) secondary antibody was diluted at 1/1000 using the diluent buffer and added at 50 uL per well. Secondary antibody incubation was for 1 h at room temperature. Cells were then washed using 1×PBST for 3 times, 5 min each time. The signal was detected and analyzed using LI-COR Odyssey DLx Imaging system. Data were collected and further processed using GraphPad Prism for IC50 estimation.

T1 sequence (P09874 whole entry): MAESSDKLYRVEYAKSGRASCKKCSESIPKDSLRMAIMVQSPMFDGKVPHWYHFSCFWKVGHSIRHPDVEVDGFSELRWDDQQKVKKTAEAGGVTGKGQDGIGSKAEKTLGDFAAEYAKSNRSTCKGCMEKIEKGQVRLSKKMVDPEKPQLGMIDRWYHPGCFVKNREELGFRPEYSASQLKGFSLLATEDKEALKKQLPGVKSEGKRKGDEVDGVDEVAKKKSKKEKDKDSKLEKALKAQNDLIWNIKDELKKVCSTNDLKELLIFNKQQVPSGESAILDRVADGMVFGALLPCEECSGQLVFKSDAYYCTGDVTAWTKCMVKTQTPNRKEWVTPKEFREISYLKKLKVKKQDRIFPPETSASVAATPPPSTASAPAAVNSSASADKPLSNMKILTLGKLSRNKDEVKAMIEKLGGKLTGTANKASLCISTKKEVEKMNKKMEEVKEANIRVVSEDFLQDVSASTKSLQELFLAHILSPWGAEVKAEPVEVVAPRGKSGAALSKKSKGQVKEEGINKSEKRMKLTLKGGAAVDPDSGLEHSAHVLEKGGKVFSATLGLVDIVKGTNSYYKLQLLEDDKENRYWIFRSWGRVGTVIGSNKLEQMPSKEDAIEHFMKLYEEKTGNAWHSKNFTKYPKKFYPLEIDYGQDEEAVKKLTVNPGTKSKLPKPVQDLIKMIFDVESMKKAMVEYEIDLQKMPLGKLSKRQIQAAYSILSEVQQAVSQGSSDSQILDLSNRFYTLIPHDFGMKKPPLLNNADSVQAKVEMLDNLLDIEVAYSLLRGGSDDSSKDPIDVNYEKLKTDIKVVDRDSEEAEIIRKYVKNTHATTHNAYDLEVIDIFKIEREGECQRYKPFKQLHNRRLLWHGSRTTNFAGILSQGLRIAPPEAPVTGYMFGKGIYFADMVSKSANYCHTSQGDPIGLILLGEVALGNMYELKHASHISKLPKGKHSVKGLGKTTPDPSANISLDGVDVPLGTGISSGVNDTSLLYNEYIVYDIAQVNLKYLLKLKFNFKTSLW

Row | Structure (SMILES) | IC50 [µM]
1 | CCN1C(=O)Nc2c(F)c(CN3CC(Oc4ccc(C(=O)NC)nc4)C3)cc3ncnc1c23 [Example 1, 5-((1-((3-Ethyl-9-fluoro-2-oxo-2,3-dihydro-1H-pyrimido[4,5,6-de]quinazolin-8-yl)methyl)azetidin-3-yl)oxy)-N-methylpicolinamide] | ≤ 0.01
2 | CCN1C(=O)Nc2c(F)c(CN3C[C@H](Oc4ccc(C(=O)NC)nc4)[C@H]3C)cc3ncnc1c23 [Example 2, 5-(((2R,3S)-1-((3-ethyl-9-fluoro-2-oxo-2,3-dihydro-1H-pyrimido[4,5,6-de]quinazolin-8-yl)methyl)-2-methylazetidin-3-yl)oxy)-N-methylpicolinamide] | ≤ 0.01
3 | CCN1C(=O)Nc2cc(CN3CC(Oc4ccc(C(=O)NC)nc4)C3)cc3ncnc1c23 [Example 3, 5-((1-((3-Ethyl-2-oxo-2,3-dihydro-1H-pyrimido[4,5,6-de]quinazolin-8-yl)methyl)azetidin-3-yl)oxy)-N-methylpicolinamide] | ≤ 0.01
4 | CCN1C(=O)Nc2cc(CN3C[C@H](Oc4ccc(C(=O)NC)nc4)[C@H]3C)cc3ncnc1c23 [Example 4, 5-(((2R,3S)-1-((3-ethyl-2-oxo-2,3-dihydro-1H-pyrimido[4,5,6-de]quinazolin-8-yl)methyl)-2-methylazetidin-3-yl)oxy)-N-methylpicolinamide] | ≤ 0.01
5 | CCN1C(=O)Nc2cc(CN3CC(Oc4ccc(C(=O)NC5CC5)nc4)C3)cc3ncnc1c23 [Example 5, N-cyclopropyl-5-((1-((3-ethyl-2-oxo-2,3-dihydro-1H-pyrimido[4,5,6-de]quinazolin-8-yl)methyl)azetidin-3-yl)oxy)picolinamide] | ≤ 0.01
6 | CCN1C(=O)Nc2cc(CN3C[C@H](Oc4ccc(C(=O)NC5CC5)nc4)[C@H]3C)cc3ncnc1c23 [Example 6, N-cyclopropyl-5-(((2R,3S)-1-((3-ethyl-2-oxo-2,3-dihydro-1H-pyrimido[4,5,6-de]quinazolin-8-yl)methyl)-2-methylazetidin-3-yl)oxy)picolinamide] | ≤ 0.01
7 | CCN1C(=O)Nc2c(F)c(CN3CC(Oc4ccc(C(=O)NC5CC5)nc4)C3)cc3ncnc1c23 [Example 7, N-cyclopropyl-5-((1-((3-ethyl-9-fluoro-2-oxo-2,3-dihydro-1H-pyrimido[4,5,6-de]quinazolin-8-yl)methyl)azetidin-3-yl)oxy)picolinamide] | ≤ 0.01
8 | CCN1C(=O)Nc2c(F)c(CN3C[C@H](Oc4ccc(C(=O)NC5CC5)nc4)[C@H]3C)cc3ncnc1c23 [Example 8, N-cyclopropyl-5-(((2R,3S)-1-((3-ethyl-9-fluoro-2-oxo-2,3-dihydro-1H-pyrimido[4,5,6-de]quinazolin-8-yl)methyl)-2-methylazetidin-3-yl)oxy)picolinamide] | ≤ 0.01
9 | CCN1C(=O)Nc2cc(CN3CC(Oc4ccc(C(=O)NC)nc4C)C3)cc3ncnc1c23 [Example 9, 5-((1-((3-Ethyl-2-oxo-2,3-dihydro-1H-pyrimido[4,5,6-de]quinazolin-8-yl)methyl)azetidin-3-yl)oxy)-N,6-dimethylpicolinamide] | ≤ 0.01
10 | CCN1C(=O)Nc2cc(CN3C[C@H](Oc4ccc(C(=O)NC)nc4C)[C@H]3C)cc3ncnc1c23 [Example 10, 5-(((2R,3S)-1-((3-ethyl-2-oxo-2,3-dihydro-1H-pyrimido[4,5,6-de]quinazolin-8-yl)methyl)-2-methylazetidin-3-yl)oxy)-N,6-dimethylpicolinamide] | ≤ 0.01
